ChEMBL document CHEMBL1136672, “Synthesis and pharmacological activity of fluorescent histamine H1 receptor antagonists related to mepyramine” (Bioorg Med Chem Lett, 2003)

What was measured:
[1] = molecular target: Histamine H1 receptor (Cavia porcellus, UniProt P31389); test: Histamine H1 receptor antagonistic activity in guinea pig ileum […]; assay type: functional, tissue-based; conditions: read-out: pA2 (converted)
[2] = molecular target: Histamine H1 receptor (Homo sapiens) (UniProt P35367); conditions: U-373MG ATCC
Chain of Histamine H1 receptor (Homo sapiens) (P35367 whole entry): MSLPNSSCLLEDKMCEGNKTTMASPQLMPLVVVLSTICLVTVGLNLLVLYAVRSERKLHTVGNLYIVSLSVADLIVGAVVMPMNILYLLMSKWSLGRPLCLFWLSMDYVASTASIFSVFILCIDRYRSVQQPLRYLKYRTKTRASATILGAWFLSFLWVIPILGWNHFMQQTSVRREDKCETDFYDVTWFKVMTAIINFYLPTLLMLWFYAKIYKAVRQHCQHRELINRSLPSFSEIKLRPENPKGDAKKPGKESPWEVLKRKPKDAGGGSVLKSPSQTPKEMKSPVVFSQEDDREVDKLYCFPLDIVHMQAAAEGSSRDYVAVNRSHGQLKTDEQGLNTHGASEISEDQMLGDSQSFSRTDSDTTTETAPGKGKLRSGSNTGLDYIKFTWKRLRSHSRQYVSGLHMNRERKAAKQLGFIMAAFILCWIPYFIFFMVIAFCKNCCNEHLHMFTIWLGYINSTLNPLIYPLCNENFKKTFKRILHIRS
Description: Histamine H1 receptor antagonistic activity in U373MG human glioblastoma cells using fluorescence-labeled H1 as radioligand in Ca+2 assay

Chain of Histamine H1 receptor (P31389 whole entry): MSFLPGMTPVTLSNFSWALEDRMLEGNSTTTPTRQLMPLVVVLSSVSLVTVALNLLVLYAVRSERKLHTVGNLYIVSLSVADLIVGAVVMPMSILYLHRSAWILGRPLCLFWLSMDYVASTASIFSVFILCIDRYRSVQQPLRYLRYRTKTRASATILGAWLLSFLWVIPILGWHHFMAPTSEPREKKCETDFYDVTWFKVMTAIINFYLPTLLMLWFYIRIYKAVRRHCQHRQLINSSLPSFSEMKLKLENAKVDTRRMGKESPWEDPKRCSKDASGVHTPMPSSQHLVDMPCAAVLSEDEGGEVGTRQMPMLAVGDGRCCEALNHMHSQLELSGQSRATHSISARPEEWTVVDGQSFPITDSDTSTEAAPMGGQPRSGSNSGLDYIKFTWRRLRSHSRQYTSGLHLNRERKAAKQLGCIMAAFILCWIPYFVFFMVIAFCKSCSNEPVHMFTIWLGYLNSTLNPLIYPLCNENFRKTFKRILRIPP

SMILES | Kb [1] | pKB [2]
COc1ccc(CN(CCN(C)CCNc2ccc([N+](=O)[O-])c3n[o+][n-]c23)c2ccccn2)cc1 | 4.68 nM | –
COc1ccc(CN(CCN(C)CCCCCCNC(=O)CCCCCNc2ccc([N+](=O)[O-])c3nonc23)c2ccccn2)cc1 | 1.95 nM | 9.05
COc1ccc(CN(CCN(C)CCCCCCCCNC(=O)c2ccc(C(=O)O)c(-c3c4ccc(=O)cc-4oc4cc(O)ccc34)c2)c2ccccn2)cc1 | 5.01 nM | 8.53
COc1ccc(CN(CCN(C)CCN)c2ccccn2)cc1 | 13.2 nM | 7.84
COc1ccc(CN(CCN(C)CCCCCCCCN)c2ccccn2)cc1 | 9.77 nM | 8.06
COc1ccc(CN(CCN(C)CCCCNC(=O)c2ccc(C(=O)O)c(-c3c4ccc(=O)cc-4oc4cc(O)ccc34)c2)c2ccccn2)cc1 | 31.6 nM | 7.81
COc1ccc(CN(CCN(C)CCNc2ccc([N+](=O)[O-])c3nonc23)c2ccccn2)cc1 | – | 8.12
COc1ccc(CN(CCN(C)CCCCCCNS(=O)(=O)c2cccc3c(N(C)C)cccc23)c2ccccn2)cc1 | 17.8 nM | 7.76
COc1ccc(CN(CCN(C)CCCCCCN)c2ccccn2)cc1 | 12.9 nM | 8.03
COc1ccc(CN(CCN(C)CCNC(=O)c2ccc(C(=O)O)c(-c3c4ccc(=O)cc-4oc4cc(O)ccc34)c2)c2ccccn2)cc1 | 145 nM | 6.93
CNCCN(Cc1ccc(OC)cc1)c1ccccn1 [2-[(2-METHYLAMINOETHYL)(P-METHOXYBENZYL)AMINO]PYRIDINE] | 6.61 nM | 8.12
COc1ccc(CN(CCN(C)CCCCCCNC(=O)c2ccc(-c3c4ccc(=N)cc-4oc4cc(N)ccc34)c(C(=O)O)c2)c2ccccn2)cc1 | 26.3 nM | 7.68
COc1ccc(CN(CCN(C)CCCCCCNC(=O)c2ccc(-c3c4ccc(=[N+](C)C)cc-4oc4cc(N(C)C)ccc34)c(C(=O)[O-])c2)c2ccccn2)cc1 | 33.1 nM | 7.54
COc1ccc(CN(CCN(C)CCCCCCNC(=O)c2ccc(-c3c4ccc(=O)cc-4oc4cc(O)ccc34)c(C(=O)O)c2)c2ccccn2)cc1 | 21.4 nM | 8.17
COc1ccc(CN(CCN(C)CCNC(=O)c2ccc(-c3c4ccc(=O)cc-4oc4cc(O)ccc34)c(C(=O)O)c2)c2ccccn2)cc1 | 69.2 nM | 7.21
COc1ccc(CN(CCN(C)CCCCNC(=O)c2ccc(-c3c4ccc(=O)cc-4oc4cc(O)ccc34)c(C(=O)O)c2)c2ccccn2)cc1 | 4.47 nM | 8.47
COc1ccc(CN(CCN(C)CCCCN)c2ccccn2)cc1 | 22.4 nM | 7.61
COc1ccc(CN(CCN(C)CCCCCCNC(=O)c2ccc(-c3c4ccc5cc(O)ccc5c4oc4c3ccc3cc(=O)ccc34)c(C(=O)O)c2)c2ccccn2)cc1 | 36.3 nM | 7.18
COc1ccc(CN(CCN(C)CCCCCCNC(=O)c2ccc(C(=O)O)c(-c3c4ccc(=O)cc-4oc4cc(O)ccc34)c2)c2ccccn2)cc1 | 26.3 nM | 8.4
COc1ccc(CN(CCN(C)CCCCCCCCNC(=O)c2ccc(-c3c4ccc(=O)cc-4oc4cc(O)ccc34)c(C(=O)O)c2)c2ccccn2)cc1 | 3.39 nM | 8.94
